Experimental data taken from patent US10376531B2, “Substituted-6,8-dioxabicyclo[3.2.1]octane-2,3-diol compounds as targeting agents of ASGPR” (Pfizer Inc., priority 2014, dated 2019).
Values joined by “and” are separate entries in the source; they are usually repeats but may differ in a detail not shown here. Equal values may be shown once.

Molecular target: Biotinylated ASGPR (ASGPr H1 wild type) (Homo sapiens (Human), UniProt P07306)
Experiment: Surface plasmon resonance (SPR) binding assay
Conditions: Biacore 3000, 25° C, immobilized biotinylated ASGPR, each run separately reported or n and standard deviation noted, steady state fit for compounds and single conjugates, kinetic fit for multimeric conjugates
Protocol: Preparation of Biotinylated ASGPR:
ASGPr H1 wild type was expressed as an insoluble inclusion body (IB) in E. coli. The cell pellet was re-suspended in TBS buffer pH 8.0 with 0.1 mg/mL lysozyme+25 microg/mL DNase+10 microg/mL RNase+10 mM MgCl2 and stirred on ice until well blended. The mixture was passed through a microfluidizer twice and centrifuged 30 minutes at 30,000×g. The resultant IB pellet was washed with TBS buffer pH 8.0+3M urea and centrifuged and this process was repeated three additional times with water. The IB pellet was
solubilized in 10 mM Tris+8M urea+100 mM β-mercaptoethanol (pH 8.5), stirred for approximately 20 minutes, then centrifuged to discard any precipitate. For the following manipulations, “buffer T” refers to 20 mM Tris+0.5 M NaCl+25 mM CaCl2. The supernatant was diluted to approximately 0.5 mg/mL in buffer T+2 mM β-mercaptoethanol+8M urea (pH 8.0), then dialysed vs. 8-10× excess volume of buffer T+2 mM β-mercaptoethanol+2 M urea (pH 8.0) overnight at 4° C. Dialysis was repeated in buffer T+1 mM β-mercaptoethanol+1 M urea (pH 8.0) for approximately 24 h at 4° C. with several volume changes with a final dialysis vs. buffer T+5 mM GSH+1 mM GSSG (pH 7.5) with 3 volume changes. The resulting sample was centrifuged and the supernatant was loaded onto an N-acetyl-D-galactosamine agarose packed Pharmacia XK 26 column, equilibrated in buffer T+2 mM TCEP (pH 8.0). The column was washed with this buffer until baseline was re-established. The bound protein was eluted with 20 mM Tris+0.5 M NaCl+2 mM TCEP+2 mM EDTA (pH 8.0). The final yield was approximately 50 mg from 5 L (70 wgm.) E. coli cell pellet. While BSA has one cysteine (Cys34) not engaged in disulfide bonding, this thiol group is often blocked as a mixed disulfide with small thiols such as cysteine, or as the sulfenic acid by aerobic oxidation. […] Mild disulfide reduction conditions were chosen so as not to disrupt buried intra-strand (solvent inaccessible) crosslinks. Thus, immediately prior to biotinylation, the ASGPR sample was first incubated with 1 mM TCEP to ensure that the sample contained a single free thiol. The protein was reacted with a 19-fold molar excess of Pierce Maleimide-PEG2-biotin reagent in PBS overnight at 4° C. Excess biotin was removed from the sample using either PD-10 columns (GE Healthcare) or Zeba Spin Desalting columns (Thermo/Pierce) using manufacturer protocols. LC-MS analysis of the product verified the presence of a single mass with addition of 525 amu consistent with the molecular weight of the maleimide adduct. […] No such outcomes were observed. […] SPR Binding Measurements:
All SPR measurements with compounds were performed using a Biacore 3000 (GE Healthcare) at 25° C. Biotinylated ASGPR was immobilized typically at 2000-3000 resonance units (Ru) using either SA sensor chips (GE Healthcare) or custom sensor chips with Neutravidin (Pierce Biochemical) immobilized by standard amine coupling to CM5 sensor chips (GE Healthcare). The running buffer was HBS (10 mM HEPES, 150 mM NaCl), 20 mM CaCl2, 0.01% p20, 3% DMSO or 50 mM tris, 150 mM NaCl, 50 mM CaCl2), 0.01% p20, 3% DMSO pH 7.5. Compounds were diluted into running buffer at a concentration of 900 uM and serially diluted 3 fold to 3.7 uM. Compound solutions were injected at 50 ul/min for 1 min followed by a 1 min dissociation in duplicate for each concentration. For the multimeric conjugates (dimers, trimers), the conjugates were diluted in running buffer to concentrations of 100 nM or 10 nM and serially diluted. Conjugates were injected for 2 min and off rates were detected for 300 or 600 sec. After completion of off phase data the compounds were displaced using an injection of 900 uM GalNAc returning the receptor surface to the free state. All data was processed using Scrubber2 (Biologic Software, Inc.) to zero, align, reference and correct for excluded volume effects. […]

Biotinylated ASGPR (ASGPr H1 wild type), sequence (P07306 161-278): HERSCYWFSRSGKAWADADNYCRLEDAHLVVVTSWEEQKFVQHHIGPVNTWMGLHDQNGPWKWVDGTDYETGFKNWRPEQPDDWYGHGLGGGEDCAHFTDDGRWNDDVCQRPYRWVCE

| SMILES | Kd |
| --- | --- |
| CS(=O)(=O)N[C@H]1[C@H]2OC[C@](CO)(O2)[C@H](O)[C@@H]1O [Compound 26, N-[(1S,2R,3R,4R,5S)-2,3-dihydroxy-1-(hydroxymethyl)-6,8-dioxabicyclo[3.2.1]oct-4-yl]methanesulfonamide] | 60 µM and 96 µM and 140 µM and 110 µM and 149 µM and 117 µM |
| CCCCCOC[C@@]12CO[C@@H](O1)[C@H](NC(C)=O)[C@@H](O)[C@H]2O [Compound 20, N-{(1S,2R,3R,4R,5S)-2,3-dihydroxy-1-[(pentyloxy)methyl]-6,8-dioxabicyclo[3.2.1]oct-4-yl}acetamide] | 2.18 µM and 3.8 µM and 4.2 µM |
| CCCOC[C@@]12CO[C@@H](O1)[C@H](NC(C)=O)[C@@H](O)[C@H]2O [Compound 18, N-[(1S,2R,3R,4R,5S)-2,3-dihydroxy-1-(propoxymethyl)-6,8-dioxabicyclo[3.2.1]oct-4-yl]acetamide] | 2.8 µM and 3.8 µM and 3.1 µM and 2.3 µM |
| O=C(N[C@H]1[C@H]2OC[C@](CO)(O2)[C@H](O)[C@@H]1O)C(F)F [Compound 27, N-[(1S,2R,3R,4R,5S)-2,3-dihydroxy-1-(hydroxymethyl)-6,8-dioxabicyclo[3.2.1]oct-4-yl]-2,2-difluoroacetamide] | 0.7 µM and 1.9 µM and 1.2 µM and 1 µM and 1.5 µM and 0.5 µM |
| CCCCCCOC[C@@]12CO[C@@H](O1)[C@H](NC(C)=O)[C@@H](O)[C@H]2O [Compound 21, N-{(1S,2R,3R,4R,5S)-1-[(hexyloxy)methyl]-2,3-dihydroxy-6,8-dioxabicyclo[3.2.1]oct-4-yl}acetamide] | 3.4 µM and 1.8 µM |
| O=C(N[C@H]1[C@H]2OC[C@](CO)(O2)[C@H](O)[C@@H]1O)C(F)(F)F [Compound 24, N-[(1S,2R,3R,4R,5S)-2,3-dihydroxy-1-(hydroxymethyl)-6,8-dioxabicyclo[3.2.1]oct-4-yl]-2,2,2-trifluoroacetamide] | 1.1 µM and 2 µM and 2.3 µM and 1.4 µM (2×) and 700 nM and 800 nM and 1.6 µM |
| CN([C@H]1[C@H]2OC[C@](CO)(O2)[C@H](O)[C@@H]1O)S(C)(=O)=O [Compound 30, N-[(1S,2R,3R,4R,5S)-2,3-dihydroxy-1-(hydroxymethyl)-6,8-dioxabicyclo[3.2.1]oct-4-yl]-N-methylmethanesulfonamide] | 110 µM and 83 µM and 210 µM and 240 µM and 132 µM and 192 µM |
| CN(C(=O)OC(C)(C)C)[C@H]1[C@H]2OC[C@](CO)(O2)[C@H](O)[C@@H]1O [Compound 31, tert-butyl [(1S,2R,3R,4R,5S)-2,3-dihydroxy-1-(hydroxymethyl)-6,8-dioxabicyclo[3.2.1]oct-4-yl]methylcarbamate] | 14 µM and 10.6 µM and 15.6 µM and 17.3 µM |
| CCCCOC[C@@]12CO[C@@H](O1)[C@H](NC(C)=O)[C@@H](O)[C@H]2O [Compound 19, N-[(1S,2R,3R,4R,5S)-1-(butoxymethyl)-2,3-dihydroxy-6,8-dioxabicyclo[3.2.1]oct-4-yl]acetamide] | 3.3 µM and 3.2 µM and 7.7 µM |
| O=C(CC(F)(F)F)N[C@H]1[C@H]2OC[C@](CO)(O2)[C@H](O)[C@@H]1O [Compound 28, N-[(1S,2R,3R,4R,5S)-2,3-dihydroxy-1-(hydroxymethyl)-6,8-dioxabicyclo[3.2.1]oct-4-yl]-3,3,3-trifluoropropanamide] | 1.2 µM and 1.8 µM and 2.1 µM and 1.4 µM and 2.4 µM and 2.9 µM |
| CC(=O)N(C)[C@H]1[C@H]2OC[C@](CO)(O2)[C@H](O)[C@@H]1O [Compound 29, N-[(1S,2R,3R,4R,5S)-2,3-dihydroxy-1-(hydroxymethyl)-6,8-dioxabicyclo[3.2.1]oct-4-yl]-N-methylacetamide] | 6.9 µM and 11.6 µM and 8.8 µM and 15.9 µM and 11.7 µM and 6.4 µM |
| CO[C@H]1OC(CO)(CO)[C@H](O)[C@H](O)[C@H]1NC(C)=O [II-b] | 199 µM and 240 µM and 260 µM and 300 µM |
| CC(=O)N[C@H]1[C@H]2OC[C@](CO)(O2)[C@H](O)[C@@H]1O [Compound 3, N-((1S,2R,3R,4R,5S)-2,3-dihydroxy-1-(hydroxymethyl)-6,8-dioxabicyclo[3.2.1]octan-4-yl)acetamide] | 7.18 µM |
| [N-]=[N+]=N[C@H]1[C@H]2OC[C@](CO)(O2)[C@H](O)[C@@H]1O [Compound 1, (1S,2R,3R,4R,5S)-4-azido-1-(hydroxymethyl)-6,8-dioxabicyclo[3.2.1]octane-2,3-diol] | 9 µM |
| COCCOCCOCCOCCOC[C@@]12CO[C@@H](O1)[C@H](NC(C)=O)[C@@H](O)[C@H]2O [Compound 22, N-[(1S,2R,3R,4R,5S)-2,3-dihydroxy-1-(2,5,8,11,14-pentaoxapentadec-1-yl)-6,8-dioxabicyclo[3.2.1]oct-4-yl]acetamide] | 5.5 µM and 7.2 µM and 6.7 µM |
| CCC(=O)N[C@H]1[C@H]2OC[C@](CO)(O2)[C@H](O)[C@@H]1O [Compound 25, N-[(1S,2R,3R,4R,5S)-2,3-dihydroxy-1-(hydroxymethyl)-6,8-dioxabicyclo[3.2.1]oct-4-yl]propanamide] | 2.2 µM and 3 µM and 2.7 µM and 3.2 µM and 4.3 µM |
| CCOC[C@@]12CO[C@@H](O1)[C@H](NC(C)=O)[C@@H](O)[C@H]2O [Compound 17, N-[(1S,2R,3R,4R,5S)-1-(ethoxymethyl)-2,3-dihydroxy-6,8-dioxabicyclo[3.2.1]oct-4-yl]acetamide] | 5.3 µM and 3.4 µM and 2.6 µM |
